Data on 5 compounds can be found in EP1492876B1, “CATIONIC AMPHIPHILES FOR INTRACELLULAR DELIVERY OF THERAPEUTIC MOLECULES, COMPOSITION, PROCESS AND USE THEREOF” (COUNCIL OF SCIENTIFIC AND INDUSTRIAL RESEARCH, priority 2002, dated 2003).

One data set concerns DNA. Kind of data set: Lipid:DNA interactions assay (ethidium bromide exclusion, fluorescence). The data set is classed as binding. To be noted: EtBr: pCMV β-gal complex titrated with lipid, TE buffer pH 8.0; Figure 2. The text has this:
Lipid:DNA Interactions Assay. Intercalation-induced fluorescence increase and competition with cationic lipids to bind to DNA has made Ethidium Bromide (EtBr) an excellent tool to study cationic lipid-DNA interactions. To assess the representative lipid:DNA interactions for the cationic lipids of the present invention, we have titrated the EtBr: pCMV β-gal complex with increasing amounts of cationic lipids 1-5.
The extent of Et.Br binding to the DNA was monitored by the changes in the fluorescence. EtBr fluorescence was monitored in Hitachi 4500 fluorimeter by setting the excitation wavelength at 518 nm and emission wavelength at 585 nm. To one ml of TE buffer (pH 8.0), 0.78 nmoles of DNA and 2.5 nmoles of EtBr were added. The change in fluorescence was monitored after adding small volumes of lipids 1-5 to the EtBr:DNA complex. Arbitrary fluorescence values were recorded after allowing sufficient time for equilibration. […] Percent fluorescence was calculated considering the fluorescence value in the absence of lipid as 100.

The nature of data set [1]: MTT based viability assay (toxicity assay). The data set is classed as cell-based. To be noted: monkey; COS-1 cells, 3:1 charge ratio. The method, then: Toxicity Assays. An MTT based viability assay was performed to assess the cytotoxicity of lipids 1-5 at various lipid:DNA charge ratios with COS-1 cells as described previously (Banerjee, R. et al. 1999). […] For lipids 1, 4 and 5 at a 3:1 charge ratio the toxicity varied from 15-25 % of the treated cells. The toxicity of lipid 2 (with shorter alkyl chains) may originate from its probable detergent-like cell-lysing activity.
In general terms: Tetrazolium dyes change colour on reduction, which living cells bring about.

The next data set has as its system COS-1 cells. Kind of data set: Cell transfection (β-galactosidase reporter gene activity). The following applies: 0.15 µg plasmid DNA, lipid 0.05 - 4.3 nmoles, reporter gene activity after 48 h, Figure 1, compared with DMRIE. It is filed as cell-based. How it is done:
Similar examples of plasmid include PGL-2 and PGL-3 of Promega and others.
Cell Transfection. COS-1 cells were seeded at a density of 15,000 cells/well in a 96-well plate eighteen hours before the transfection. 0.15 µg of plasmid DNA was complexed with varying amount of lipid (0.05 - 4.3 nmoles) in 13 µl of plain DMEM medium for 30 min. The charge ratios were varied from 0.1 : 1 to 9 : 1 (+/-) over this range of the lipid. The complex was diluted to 100 µl with plain DMEM and added to the wells. After 3 h of incubation, 100 µl of DMEM with 10 % FCS was added to the cells. The medium was changed to 10 % complete medium after 24 h and the reporter gene activity was estimated after 48 h. The cells were washed twice with PBS and lysed in 50 µl of lysis buffer (0.25 M Tris.HCl, pH 8.0 and 0.5% NP40). Care was taken to ensure complete lysis. The β-galactosidase activity per well was estimated by adding 50 µl of 2X substrate solution (1.33 mg/ml of ONPG, 0.2 M sodium phosphate, pH 7.15 and 2 mM magnesium chloride) to the lysate in a 96-well plate. Absorption at 405 nm was converted to β-galactosidase units by using calibration curve constructed with pure commercial β-galactosidase enzyme. The values of β-galactosidase units in replicate plates assayed on the same day varied by less than 30 %. […]
(In general: Reporter assays use an easily measured gene product as a stand-in for the process of interest.)

Regarding `CCCCCCCCCCCC[N+]1(CCCCCCCCCCCC)CC(O)C(O)C1` (stereo not drawn) [compound 1], the “lipid:DNA interaction (ability to exclude ethidium bromide from DNA)” value (“lipid:DNA interaction” below) in the data set on DNA was “interact poorly with DNA”. Besides, the cytotoxicity in data set [1] was in the range of 15 to 25%.
For the compound `CCCCCCCCCCCCCC[N+]1(CCCCCCCCCCCCCC)CC(O)C(O)C1` (stereo not drawn) [compound 2], the “lipid:DNA interaction” value in the data set on DNA is given as “interact with DNA equally well up to lipid:DNA ratio of 1.25 or so”. Moreover, in the data set on COS-1 cells, the “in vitro transfection efficiency” value is listed as “comparable to or better than that of DMRIE”.
Regarding `CCCCCCCCCCCCCCCC[N+]1(CCCCCCCCCCCCCCCC)CC(O)C(O)C1` (stereo not drawn) [compound 3], the “lipid:DNA interaction” value in the data set with DNA is recorded as “interact with DNA equally well up to lipid:DNA ratio of 1.25 or so”.
For `CCCCCCCCCCCCCCCCCC[N+]1(CCCCCCCCCCCCCCCCCC)CC(O)C(O)C1` (stereo not drawn) [compound 4], in the data set with DNA, the “lipid:DNA interaction” value is on record as “interact poorly with DNA”. In addition, the cytotoxicity in data set [1] fell in the range of 15 to 25%.
For `CCCCCCCC/C=C\CCCCCCCC[N+]1(CCCCCCCCCCCCCCCCCC)CC(O)C(O)C1` (stereo not drawn) [compound 5], in that order: “interact poorly with DNA” and 15 to 25%.
